# Test results from patent US20210038668A1, “TRADITIONAL CHINESE MEDICINE COMPOSITION FOR PREVENTING AND/OR TREATING ISCHEMIC REPERFUSION INJURY” (TASLY PHARMACEUTICAL GROUP CO., LTD., priority 2018, published 2021).
# Tests used:
# Type in all cases: in vivo, C57BL/6 mice
# [1] = system: thrombus of arteria carotis communis; test: Observation of carotid thrombus size, FeCl3 model
# Procedure: Mice were anesthetized via intraperitoneal injection by pentobarbital sodium (2%, 45 mg/kg), and neck kin was sterilized. A median incision was cut on the neck, exposed and isolated to obtain arteria carotis communis; a waterproof cushion was used to isolate arteria carotis communis with the length of about 2.5-3 mm from surrounding tissues. The isolated arteria carotis communis was wrapped by a filter paper soaked by 10% FeCl3 for about 1 mm (width), and the filter paper was removed 3 minutes later, the outside of blood vessel was washed by 0.9% normal saline. The waterproof cushion was removed. The neck incision was sutured. The start of Fe3+ stimulation was defined as the beginning of ischemia, and those mice meeting the following conditions were selected into the group: the blood vessel was blocked at the maximum diameter of the neck thrombus 10 minutes after ischemia; the blood flow of the carotid artery distal end was less than 20% of the base value 15 minutes after ischemia; and the thrombus was stable 4.5 hours after ischemia (before reperfusion); the carotid artery vessel at 60% and more of the diameter was blocked by the maximum diameter of the thrombus.
# Mice were treated by medicaments or normal saline according to random grouping results 4.5 hours after ischemia. Mice femoral vein was intubated, and left femoral vein was injected tPA (tissue plasminogen activator) or normal saline; right femoral vein was injected the traditional Chinese medicinal composition of the present invention or normal saline; 10% of the total dose was injected via an injection pump, and the rest 90% were continuously injected intravenously for 1 hour with the rate of 0.1 ml/h. Three proportion groups were selected to the traditional Chinese medicinal composition of the present invention respectively below:
# Carotid thrombus of mice was dynamically observed by an upright microscope. Anesthetized mice were placed on a board in supine position, a median incision was cut on the neck; arteria carotis communis was exposed and separated; femoral vein was given Acridine red fluorescence labeling of blood platelet to observe the change of carotid thrombus of mice before ischemia (namely, a base value), 10 minutes after ischemia, 4.5 hours after ischemia (namely, before reperfusion), 1 hour after reperfusion, 2 hours after reperfusion and 24 hours after reperfusion. There was no thrombus before ischemia (namely, a base value); the blood vessel was blocked by thrombus at a maximum diameter 10 minutes after ischemia; blood flow at the distal end of carotid artery decreased to 20% of the base value below 15 minutes after ischemia; the thrombus was stable 4.5 hours after ischemia (namely, before reperfusion). The success criterion is that the size of thrombus blocks 60% of the vascular area of carotid artery and above; the success rate of entry is up to 90.9%. Excepting for the sham-operated group and each basal group, the rest groups were randomly allocated after building models successfully.
# [2] = system: brain tissue (blood brain barrier leakage); test: Evens Blue leakage in brain tissue; conditions: 24 h after administration; method: microgram Evens Blue per gram brain tissue; tPA 10 mg/kg alone; T541 20 mg/kg + tPA 10 mg/kg
# Procedure: Evens Blue leakage: after reperfused for 21 hours, mice were slowly injected an Evens Blue dye (2%, 4 ml/kg) dissolving in normal saline via femoral vein. 3 hours later, mice were perfused 15-20 ml of normal saline till auricula dextra flows colourless liquid, then the brain was immediately separated and immobilized in a 3% paraformaldehyde for 3 hours, then taken out, the brain was cut into 5 slices and shoot; left and right brain was separated and respectively weighed. Left and right brain was respectively added to an EP tube containing 1 ml of 50% trichloroacetic acid, homogenated and centrifuged to obtain the supernatant. An Evens Blue standard was prepared and the content of Evens Blue was detected by a multimode reader (exciting light: 620 nm, emitting light: 680 nm). The content of Evens Blue was denoted by the microgram of Evens Blue in per gram of brain tissue.
# [3] = system: cerebral cortex microvessels; test: Opening number of cerebral cortex microvessels by SEM; conditions: 24 h after administration; tPA 10 mg/kg alone; T541 20 mg/kg + tPA 10 mg/kg
# Procedure: Scanning electron microscope (SEM): after reperfused for 24 hours, anesthetized mice were perfused 3% glutaraldehyde for 40 minutes via ventriculus sinister at a rate of 3 ml/min; the brain was taken, and the right cortical penumbra was cut off and immobilized in glutaraldehyde for 2 hours. After washed by a PBS phosphate buffer, mice were immobilized in 1% osmium tetroxide for 2 hours; a proper section was taken and fixed on a metal support. Tissue blocks were plated gold, observed and shoot by an SEM (JSM-5600LV, JEOL, Tokyo, Japan).
# 5 500-fold visual fields were randomly selected for each mouse under SEM to count the opening number of cerebral cortex microvessels in right hemisphere penumbra. N=3. (See lines 3 and 4 of FIG. 7)
# brain tissue (edema) = test: Brain tissue dry/wet weight ratio; conditions: 24 h after administration; tPA 10 mg/kg alone; T541 20 mg/kg + tPA 10 mg/kg
# Procedure: Brain tissue dry/wet weight ratio: after reperfused for 24 hours, mice were immediately anesthetized; the head was cut off to take brain; left and right brain was respectively weighed (denoted as wet weight). Afterwards, the brain was placed into a 60° C. drying oven for drying for 72 hours, and then weighed (denoted as dry weight). Brain tissue dry/wet weight ratio is calculated by […].
# cerebral infarction = test: TTC infarct size, mice after thrombolysis; conditions: 24 h after administration, tPA 10 mg/kg alone, T541 20 mg/kg + tPA 10 mg/kg
# Procedure: After reperfused for 24 hours, mice were perfused via heart by a PBS buffer precooled at 4° C. and separated brain via craniotomy; the brain was cut from front to back into 5 slices in a brain stereotaxic apparatus; bleeding condition was rapidly shoot in cold condition; then slices were put into 2% triphenyltetrazolium chloride, TTC for incubation for 15 minutes at […]; TTC staining was conducted. Non-infarct region was stained red and infarct region was not stained and still white. Brain TTC staining images were shoot and IamgeJ (Bethesda, Md., USA) was used to calculate a percentage of TTC staining infarct size in the total area of brain, and evaluate the degree of cerebral infarction.
# [4] = system: TUNEL positive cells of cerebral cortex in penumbra; test: TUNEL staining of brain tissue; conditions: brain tissue 24 hours after administration; tPA 10 mg/kg alone; T541 20 mg/kg + tPA 10 mg/kg
# Procedure: After reperfused for 24 hours, mice were killed to take brain, so as to observe the degree of cerebral hemorrhage and infarct size, measure the hemoglobin content in brain tissues after bleeding, detect dry/wet weight ratio and Evans Blue leakage of brain tissues, reflect the condition of tissue edema, observe the severity order of apoptosis by TUNEL staining brain tissues, observe the change of blood brain barrier of the blood vessel when injured by making Western blotting analysis on connexins Occludin, JAM-1, ZO-1, VE-cadherin and laminin, namely, the component of basement membrane and by conducting immunofluorescent staining on partial connexins and laminin, detect the change of the structure after cerebral ischemia reperfusion by a scanning electron microscope and IEM, and measure the change on the activity of brain tissues MDA, 8-OHdG, ATP/ADP/AMP and mitochondrial complexes I, II and IV by enzyme-linked immunosorbent assay (ELISA).
# [5] = before administration, groups: tPA 10 mg/kg alone, T541 20 mg/kg, T141 12 mg/kg, T582 15 mg/kg each + tPA 10 mg/kg
# [6] = iv, tPA 10 mg/kg alone, T541 20 mg/kg, T141 12 mg/kg, T582 15 mg/kg each + tPA 10 mg/kg
substance,measurement,setting,value
tPA: tissue-type plasminogen activator (tPA) for thrombolysis,"Size of thrombus, 10 minutes after FeCl3 simulation",[1]; [5],25.13 ± 1.34
same,"Size of thrombus, Before FeCl3 simulation",[1]; [5],0 ± 0
same,thrombolysis effect (in words),"[1]; given alone: T541 20 mg/kg, tPA 10 mg/kg (24 hours later)",size of thrombus decreases obviously
same,"Size of thrombus, 5.5 hours after FeCl3 simulation (1 hour after administration)",[1]; [6],22.14 ± 1.36
same,"Size of thrombus, 6.5 hours after FeCl3 simulation (2 hours after administration)",[1]; [6],16.64 ± 4.10
same,"Size of thrombus, 28.5 hours after FeCl3 simulation (24 hours after administration)",[1]; [6],11.15 ± 2.61
same,"Size of thrombus, 4.5 hours after FeCl3 simulation","[1]; start of administration, groups: tPA 10 mg/kg alone, T541 20 mg/kg, T141 12 mg/kg, T582 15 mg/kg each + tPA 10 mg/kg",23.47 ± 1.78
same,Evens Blue leakage,[2],17.55 ± 1.23
same,Opening number of microvessels,[3],21.07 ± 1.54
same,Brain dry/wet weight ratio,brain tissue (edema),0.801 ± 0.002
same,Infarct size,cerebral infarction,15.68 ± 4.81
same,TUNEL positive cell counting,[4],27.14 ± 1.77
